# System: androgen receptor (AR) in LNCaP and/or VCaP cells
# Test: Androgen Receptor ELISA assay (AR degradation)
# Format: cell-based
# Details: LNCaP and/or VCaP cells; 5 hours incubation; media with R1881; read-out: DC50 Code* (degradation of AR ELISA)
# Procedure: Androgen Receptor ELISA Assay. […] The protocols used with VCaP cells are described below.
# The cells were grown for a minimum of 3 days.
# (2)(i) A 10× stock plate in media was made; (ii) 2.5 μL of the 1000× stock was transferred to a new 10× stock plate (use 12 channel pipet, start at A (DMSO control) work thru H. When 247.5 µL of media was added to this plate, it served as a 10× stock; (iii) made media+1 nM R1881 for making 10× stock plate; (iv) added 247.5 μL of media with 1 nM R1881 to each well of the 10× stock plate, mix.
# Then 22 μL of 10× stock was added to cells and incubated for 5 hours. […] Media was aspirated, and 100 μL 1× cell lysis buffer/well was added. The cells were placed on a shaker located in a cold room for 10 minutes and shaken at speed 7. The lysate mixture was mix and 20 μL transferred to 100 μl of Diluent in ELISA plate (0.15 μg/ml-[…]). The lysate-diluent mixture was store at 4° C. overnight on a shaker located in a cold room at speed 5 (gentle swirl).
# The lysate-diluent mixture was shaken for 30 minutes at 37° C. The mouse AR antibody, anti-mouse antibody, TMB, and STOP solution were allowed to come to room temperature. The 1×ELISA buffer included in kit was made and loaded in reservoir. Media from the plate was discarded, the ELISA plate was tapped hard on paper towel, and washed 4×200 μl ELISA wash buffer using a plate washer for the first three washes and an eight channel aspirator for the fourth wash to more thoroughly aspirate the solution.
# Next, 100 μL/well of mouse AR detection Ab was added; the plate was covered and shaken at 37° C. for 1 hour; media was discarded from the plates, the plates tapped on a paper towel and washed four times with 200 μL ELISA wash buffer with a plate washer for the first three washes and an eight channel aspirator for the fourth wash; 100 μL/well of anti-mouse—HRP conjugated Ab (comes with the kit) was added; the plates was cover and shaken at 37° C. for 30 minutes; the TMB reagent was allowed to come to room temperature; the media from the plate was discarded, the plates tapped on paper towel, and washed four times with 200 μL ELISA wash buffer with a plate washer for the first three washes and an eight channel aspirator for the fourth wash; plates were tapped on paper towel; 100 μL TMB was added to each well and the plate shaken for 2 minutes—while watching color. STOP solution (100 μL) was added when light blue color developed.
# Data was analyzed and plotted using GraphPad Prism software. Exemplary compounds of Tables 1A, 1B, and 1C were assayed and the data shown below in Tables 2A, 2B, and 2C. DC50 (nM) categories (degradation of AR ELISA in LNCaP and/or VCaP cells) of Tables 2A, 2B, and 2C are as follows: A<1 nM; 1≤B<10 nM; 10≤C<100 nM; D≥100 nM. Dmax (%) categories (degradation of AR ELISA in LNCaP and/or VCaP cells) of Table 2 are as follows: A≥70; 50≤B<70; C<50
row,DC50 [nM],Structure (SMILES)
1,< 1,"CCOc1cc(O[C@H]2CC[C@H](NC(=O)c3cnc(N4CC(CN(C(C)C)[C@H]5C[C@H](Oc6ccc7c(c6)C(=O)N(C6CCC(=O)NC6=O)C7=O)C5)C4)cn3)CC2)ccc1C#N (some centres unmarked) [Compound 43, N-((1r,4r)-4-(4-cyano-3-ethoxyphenoxy)cyclohexyl)-5-(3-((((1r,3r)-3-((2-(2,6-dioxopiperidin-3-yl)-1,3-dioxoisoindolin-5-yl)oxy)cyclobutyl) (isopropyl)amino)methyl)azetidin-1-yl)pyrazine-2-carboxamide]"
2,> 100,"COc1cc(O[C@H]2CC[C@@H](NC(=O)c3cnc(N4CCC(CN(C(C)C)[C@H]5C[C@H](Oc6ccc7c(c6)C(=O)N(C6CCC(=O)NC6=O)C7=O)C5)CC4)cn3)C2)ccc1C#N (stereo partly drawn) [Compound 6, N-((1R,3S)-3-(4-cyano-3-methoxyphenoxy)cyclopentyl)-5-(4-((((1r,3R)-3-((2-(2,6-dioxopiperidin-3-yl)-1,3-dioxoisoindolin-5-yl)oxy)cyclobutyl) (isopropyl)amino)methyl)piperidin-1-yl)pyrazine-2-carboxamide]"
3,< 1,"CC(C)N(CC1CCN(c2cnc(C(=O)N[C@H]3CC[C@H](Oc4ccc(C#N)c(Cl)c4)CC3)cn2)CC1)[C@H]1C[C@H](Oc2ccc3c(c2)C(=O)N(C2CCC(=O)NC2=O)C3)C1 (some centres unmarked) [Compound 41, N-((1r,4r)-4-(3-chloro-4-cyanophenoxy)cyclohexyl)-5-(4-((((1r,3r)-3-((2-(2,6-dioxopiperidin-3-yl)-3-oxoisoindolin-5-yl)oxy)cyclobutyl) (isopropyl)amino)methyl)piperidin-1-yl)pyrazine-2-carboxamide]"
4,< 1,"COc1cc(O[C@H]2CC[C@H](NC(=O)c3cnc(N4CCC(CN(C(C)C)[C@H]5CC[C@H](Oc6ccc7c(c6)C(=O)N(C6CCC(=O)NC6=O)C7=O)CC5)CC4)cn3)CC2)ccc1C#N (some centres unmarked) [Compound 31, N-((1r,4r)-4-(4-cyano-3-methoxyphenoxy)cyclohexyl)-5-(4-((((1r,4r)-4-((2-(2,6-dioxopiperidin-3-yl)-1,3-dioxoisoindolin-5-yl)oxy)cyclohexyl) (isopropyl)amino)methyl)piperidin-1-yl)pyrazine-2-carboxamide]"

# Same assay, conditions: degradation of AR ELISA in LNCaP and/or VCaP cells; Table 2C; read-out: DC50 Code*
row,DC50 [nM],Structure (SMILES)
1,> 100,"CC(C)N(CC1CCN(c2cnc(C(=O)N[C@H]3C(C)(C)[C@H](Oc4ccc(C#N)c(Cl)c4)C3(C)C)cn2)CC1)[C@H]1C[C@H](Oc2ccc3c(c2)C2(CC2)N(C2CCC(=O)NC2=O)C3=O)C1 (some centres unmarked) [compound 138, N-((1r,3r)-3-(3-chloro-4-cyanophenoxy)-2,2,4,4-tetramethylcyclobutyl)-5-(4-((((1r,3r)-3-((2′-(2,6-dioxopiperidin-3-yl)-3′-oxospiro[cyclopropane-1,1′-isoindolin]-6′-yl)oxy)cyclobutyl) (isopropyl)amino)methyl)piperidin-1-yl)pyrazine-2-carboxamide]"
2,< 1,"[2H]C([2H])([2H])Oc1cc(O[C@H]2C[C@H](N(CC3CCN(c4cnc(C(=O)N[C@H]5C(C)(C)[C@H](Oc6ccc(C#N)c(OC)c6)C5(C)C)cn4)CC3)C(C)C)C2)cc2c1C(=O)N(C1CCC(=O)NC1=O)C2=O (mixture of isomers) [compound 203, rac-N-((1r,3r)-3-(4-cyano-3-methoxyphenoxy)-2,2,4,4-tetramethylcyclobutyl)-5-(4-((((1r,3r)-3-((2-(2,6-dioxopiperidin-3-yl)-7-(methoxy-d3)-1,3-dioxoisoindolin-5-yl)oxy)cyclobutyl) (isopropyl)amino)methyl)piperidin-1-yl)pyrazine-2-carboxamide]"
3,> 100,"Cc1cc(O[C@H]2C(C)(C)[C@H](NC(=O)c3cnc(N4CC(CCN5CCC(Oc6ccc7c(c6)C(=O)N(C6CCC(=O)NC6=O)C7=O)CC5)C4)cn3)C2(C)C)cc(C)c1C#N (some centres unmarked) [compound 143, N-((1r,3r)-3-(4-cyano-3,5-dimethylphenoxy)-2,2,4,4-tetramethylcyclobutyl)-5-(3-(2-(4-((2-(2,6-dioxopiperidin-3-yl)-1,3-dioxoisoindolin-5-yl)oxy)piperidin-1-yl)ethyl)azetidin-1-yl)pyrazine-2-carboxamide]"
4,< 1,"COc1cc(O[C@H]2C(C)(C)[C@H](NC(=O)c3ccc(N4CCC(CN(CCN5CCOCC5)[C@H]5C[C@H](Oc6ccc7c(c6)C(=O)N(C6CCC(=O)NC6=O)C7=O)C5)CC4)cc3)C2(C)C)ccc1C#N (some centres unmarked) [compound 204, N-((1r,3r)-3-(4-cyano-3-methoxyphenoxy)-2,2,4,4-tetramethylcyclobutyl)-4-(4-((((1r,3r)-3-((2-(2,6-dioxopiperidin-3-yl)-1,3-dioxoisoindolin-5-yl)oxy)cyclobutyl)(2-morpholinoethyl)amino)methyl)piperidin-1-yl)benzamide]"
5,< 1,"COc1cc(O[C@H]2C(C)(C)[C@H](NC(=O)c3ccc(N4CCC(CN(CC(F)F)[C@H]5C[C@H](Oc6cc(OC)c7c(c6)C(=O)N(C6CCC(=O)NC6=O)C7=O)C5)CC4)cc3)C2(C)C)ccc1C#N (some centres unmarked) [compound 235, N-((1r,3r)-3-(4-cyano-3-methoxyphenoxy)-2,2,4,4-tetramethylcyclobutyl)-4-(4-(((2,2-difluoroethyl)((1r,3r)-3-((2-(2,6-dioxopiperidin-3-yl)-7-methoxy-1,3-dioxoisoindolin-5-yl)oxy)cyclobutyl)amino)methyl)piperidin-1-yl)benzamide]"
6,< 1,"Cc1cc(O[C@H]2C(C)(C)[C@H](NC(=O)c3ccc(N4CCC(CN(C(C)C)[C@H]5C[C@H](Oc6ccc7c(c6)C(=O)N(C6CCC(=O)NC6=O)C7=O)C5)CC4)nn3)C2(C)C)cc(C)c1C#N (some centres unmarked) [compound 110, N-((1r,3r)-3-(4-cyano-3,5-dimethylphenoxy)-2,2,4,4-tetramethylcyclobutyl)-6-(4-((((1r,3r)-3-((2-(2,6-dioxopiperidin-3-yl)-1,3-dioxoisoindolin-5-yl)oxy)cyclobutyl) (isopropyl)amino)methyl)piperidin-1-yl)pyridazine-3-carboxamide]"
7,< 1,"CC1(C)[C@H](NC(=O)c2ccc(N3CCN([C@H]4CC[C@H](Oc5ccc6c(c5)C(=O)N(C5CCC(=O)NC5=O)C6=O)C4)CC3)cc2)C(C)(C)[C@H]1Oc1ccc(C#N)c(Cl)c1 (stereo partly drawn) [compound 125, N-((1r,3S)-3-(3-chloro-4-cyanophenoxy)-2,2,4,4-tetramethylcyclobutyl)-4-(4-((1S,3S)-3-((2-(2,6-dioxopiperidin-3-yl)-1,3-dioxoisoindolin-5-yl)oxy)cyclopentyl)piperazin-1-yl)benzamide]"
8,< 1,"Cc1cc(O[C@H]2C(C)(C)[C@H](NC(=O)c3ccc(N4CCC(CN(CCO)[C@H]5C[C@H](Oc6ccc7c(c6)C(=O)N(C6CCC(=O)NC6=O)C7=O)C5)CC4)cc3)C2(C)C)cc(C)c1C#N (mixture of isomers) [compound 225, rac-N-((1r,3r)-3-(4-cyano-3,5-dimethylphenoxy)-2,2,4,4-tetramethylcyclobutyl)-4-(4-((((1r,3r)-3-((2-(2,6-dioxopiperidin-3-yl)-1,3-dioxoisoindolin-5-yl)oxy)cyclobutyl)(2-hydroxyethyl)amino)methyl)piperidin-1-yl)benzamide]"
9,1 to 10,"CC1(C)[C@H](NC(=O)c2ccc(N3CCC(CN4CCN(c5ccc6c(c5)C(=O)N(C5(F)CCC(=O)NC5=O)C6=O)CC4)CC3)cc2)C(C)(C)[C@H]1Oc1ccc(C#N)c(Cl)c1 (mixture of isomers) [compound 129, N-((1r,3r)-3-(3-chloro-4-cyanophenoxy)-2,2,4,4-tetramethylcyclobutyl)-4-(4-((4-(2-(3-fluoro-2,6-dioxopiperidin-3-yl)-1,3-dioxoisoindolin-5-yl)piperazin-1-yl)methyl)piperidin-1-yl)benzamide]"
10,1 to 10,"Cc1cc(O[C@H]2C(C)(C)[C@H](NC(=O)c3ncc(N4CCC(CN(C(C)C)[C@H]5C[C@H](Oc6ccc7c(c6)C(=O)N(C6CCC(=O)NC6=O)C7=O)C5)CC4)cn3)C2(C)C)cc(C)c1C#N (some centres unmarked) [compound 132, N-((1r,3r)-3-(4-cyano-3,5-dimethylphenoxy)-2,2,4,4-tetramethylcyclobutyl)-5-(4-((((1r,3r)-3-((2-(2,6-dioxopiperidin-3-yl)-1,3-dioxoisoindolin-5-yl)oxy)cyclobutyl) (isopropyl)amino)methyl)piperidin-1-yl)pyrimidine-2-carboxamide]"

# From patent publication US20260053932A1, “COMPOUNDS AND METHODS FOR THE TARGETED DEGRADATION OF ANDROGEN RECEPTOR AND ASSOCIATED METHODS OF USE” (Arvinas Operations, Inc., priority 2020, published 2026)
